IC50 and Activity data for 33 molecules are collected here from ChEMBL document CHEMBL5543059, “Discovery of anti-inflammatory natural flavonoids: Diverse scaffolds and promising leads for drug discovery” (Eur J Med Chem, 2023).

The structures appear in SMILES notation. pIC50: −log10 of the molar value.

Assay [1] relates to BV-2. Briefly: Anti-inflammatory activity in mouse BV-2 cells assessed as inhibition of LPS-induced NO production preincubated with compound for 1 hrs followed by LPS stimulation and measured after 24 hrs by Griess reagent based assay. Type of assay: functional, cell-based.
Assay [2] concerns J774.A1. The experiment in a line: Antiinflammatory activity in LPS-induced mouse J774.A1 macrophage cells assessed as reduction in LPS-induced IL-1 beta level. In kind it is functional, cell-based.
For assay [3], the system named is J774.A1. The experiment in a line: Anti-inflammatory activity in mouse J774.A1 macrophage cells assessed as reduction in LPS-induced TNF-alpha production. In kind it is functional, cell-based.
Assay [4] is described as follows: Anti-inflammatory activity in carrageenan-induced human PBMC cells assessed as inhibition of IL-beta leakage at 10 uM measured for 24 hrs relative to control. In kind it is functional. More on the design: scale not given: the % may be the effect or the level left.
For assay [5], the system named is RAW264.7. The experiment in a line: Antiinflammatory activity in LPS-activated mouse RAW264.7 cells assessed as inhibition of ROS production at 10 uM relative to control. Details: scale not given: the % may be the effect or the level left. Type of assay: functional.
Assay [6] has as its system RAW264.7. Briefly: Antiinflammatory activity in LPS-induced mouse RAW264.7 cells assessed as reduction in COX2 mRNA expression incubated for 24 hrs by qRT-PCR analysis. Type of assay: functional, cell-based. The note with it: RAW264.7, 24 h. A general note: Real-time PCR tracks product formation cycle by cycle.
For assay [7], the system named is RAW264.7. Briefly: Anti-neuroinflammatory activity in mouse RAW264.7 cells assessed as inhibition of LPS-induced NO production pre-incubated for 1 hr followed by LPS stimulation and measured after 24 hrs by Griess reagent based assay. In kind it is functional, cell-based. (Griess reagent forms a coloured azo dye with nitrite.)
The subject of assay [8] is Neutrophil. Briefly: Inhibition of fMLF/CB-induced human Neutrophil activation assessed as reduction in superoxide anion generation pre-incubated for 2 mins prior to CB induction for 3 mins followed by fMLF addition by spectrophotometric analysis. Type of assay: functional, cell-based.
A further assay deals with B16-F10. The experiment in a line: Anti-inflammatory activity in LPS-stimulated mouse B16-F10 cells assessed as reduction in TNFalpha production measured for 12 hrs by ELISA method. Type of assay: functional, cell-based. Conditions: B16-F10, 12 h. Background: An ELISA detects its analyte on a solid surface through an enzyme-linked reagent.
A further assay relates to THP-1. Briefly: Anti-inflammatory activity in LPS-stimulated human THP-1 cells assessed as reduction of TNFalpha measured for 12 hrs by ELISA method. Conditions: THP-1, 12 h. Type of assay: functional, cell-based.
The test system of another assay is Macrophage. Briefly: Anti-inflammatory activity in mouse macrophages extracted from abdominal activity assessed as inhibition of LPS-induced nitric oxide production. In kind it is functional, cell-based.
Assay [9] concerns BV-2. Briefly: Anti-inflammatory activity in mouse BV-2 cells assessed as reduction in LPS-induced NO production pretreated for 1 hr followed by LPS-stimulation and measured after 18 hrs by 2,3-diaminonaphthalene reagent based fluorescence analysis. Type of assay: functional, cell-based.
Assay [10] concerns RAW264.7. Briefly: Antiinflammatory activity in mouse RAW264.7 cells assessed as decrease in LPS-induced IL-6 secretion after 24 hrs by ELISA method. Type of assay: functional, cell-based. The note with it: RAW264.7, 24 h.
The subject of assay [11] is RAW264.7. The experiment in a line: Anti-inflammatory activity in mouse RAW264.7 cells assessed as inhibition of LPS-induced nitric oxide production measured after 18 hrs by Griess assay. The note with it: RAW264.7, 18 h. Type of assay: functional, cell-based.
Assay [12] concerns BV-2. The experiment in a line: Anti-inflammatory activity in mouse BV-2 cells assessed as reduction in LPS-induced NO production pre-treated with compounds for 2 hrs followed by LPS-stimulation measured for 22 hrs by Griess reagent based analysis. In kind it is functional, cell-based.
Assay [13] relates to BV-2. Briefly: Antiinflammatory activity in mouse BV-2 cells assessed as reduction in LPS-induced NO production pre-treated with compound for 1 hr followed by LPS-stimulation and measured for 23 hrs by Griess reagent based analysis. In kind it is functional, cell-based.
Assay [14] has as its system Neutrophil. The experiment in a line: Inhibition of fMLF/CB-induced human Neutrophil activation assessed as reduction in superoxide anion. In kind it is functional, cell-based.
Assay [15] concerns Neutrophil. The experiment in a line: Inhibition of fMLF/CB-induced human Neutrophil activation assessed as reduction in elastase release. In kind it is functional, cell-based.

A word on the pIC50: it is the IC50 on a negative log10 scale, so that one unit is a factor of ten. Take `COc1cc(O)c2c(=O)c(OC)c(-c3ccc(O)c(O)c3)oc2c1`: the pIC50 in the assay with BV-2 [1] was 5.38. Take `COc1c2c(cc3oc(-c4ccccc4)cc(=O)c13)OCO2`: the negative-log IC50 (pIC50) was 5.19 with J774.A1 [2] and 6.66 with J774.A1 [3].

`COc1ccc(-c2cc(=O)c3c(O)c(OC)c(OC)cc3o2)cc1OC`: the Activity in assay [4] worked out at 16.8%.

As for `COc1ccc(-c2cc(=O)c3c(O)c(OC)c(OC)c(O)c3o2)cc1OC`, in assay [4], the Activity is 34.4%. For `COc1c(/C=C/C(=O)c2ccc(O)cc2)ccc(O)c1O`, the Activity with RAW264.7 [5] was 80%. Take `COc1cc2oc(-c3ccccc3)cc(=O)c2c(O)c1O`: the pIC50 in the assay with J774.A1 [2] is 5.19; in the assay with J774.A1 [3] it was 6.66.

As to `COc1ccc(-c2oc3cc(O)cc(O)c3c(=O)c2OC)cc1O`, the pIC50 in the assay on BV-2 [1] is 4.95. Take `CC(C)=CCC/C(C)=C/Cc1c(C2CC(=O)c3c(O)cc(O)cc3O2)ccc(O)c1O` (configuration not stated): the pIC50 with RAW264.7 [6] was 4.93.

Regarding `COc1c2c(cc3oc(=O)c(-c4ccc(O)cc4)c(O)c13)OC(C)(C)C=C2`, the pIC50 in the assay on RAW264.7 [7] is 6.05.

`C=CC(C)(C)c1cc(/C=C/C(=O)c2ccc(O)cc2)c(OC)c(O)c1O`: the Activity in the assay on RAW264.7 [5] was 80%. In the case of `COc1cc(O)c2c(=O)cc(-c3ccc(OC)c(OC)c3)oc2c1`, in the assay with Neutrophil [8], the pIC50 is at least 4.90. As to `COc1ccc2oc(-c3ccc(OC)c(OC)c3)cc(=O)c2c1`, the pIC50 with B16-F10 is 5.89; in the assay on THP-1 it was 5.62. With `COc1cc2occ(-c3ccc(O)cc3)c(=O)c2c(OC)c1CC=C(C)C`, the negative logarithm of the IC50 (pIC50) in the assay with Macrophage is 5.61.

In the case of `COc1ccc(-c2coc3cc(OC)c(CC=C(C)C)c(OC)c3c2=O)cc1`, the pIC50 with Macrophage is 5.69. With `CC(C)=CCC/C(C)=C/Cc1c(O)cc2c(c1O)C(=O)CC(c1ccc(O)c(O)c1)O2` (configuration not stated), the pIC50 in the assay on RAW264.7 [6] is 4.93. Consider `Oc1ccc2c(c1)OC[C@H](c1cc3c(cc1O)OCO3)[C@H]2O`, for which the negative-log IC50 (pIC50) in the assay with BV-2 [9] was 4.40. For `COc1cc(O)c2c(=O)cc(-c3ccc(OC)c(OC/C=C(\C)CCC=C(C)C)c3)oc2c1`, the pIC50 with Neutrophil [8] is at least 4.90. Take `COc1ccc2c(c1)O[C@H](c1ccc(O)cc1O)CC2`: the pIC50 in the assay with RAW264.7 [10] is 4.66. For the molecule `COc1cc(-c2coc3cc(O)c(CC=C(C)C)c(O)c3c2=O)c(O)cc1O`, the pIC50 in the assay on Macrophage was 5.17. For the molecule `COc1c(-c2ccc3c(c2)OCO3)c(=O)oc2cc3oc(C(C)(C)O)cc3c(OC)c12`, the pIC50 with RAW264.7 [7] was 6.05. Turning to `COc1c(O)ccc2c1OC[C@H](c1cc3c(cc1O)OCO3)[C@H]2O`, in the assay on BV-2 [9], the negative-log IC50 (pIC50) was 4.33. On to `Cc1c(O)c2c(c(C(=O)C(C)C)c1O)OC(c1ccccc1)CC2=O` (configuration not stated), for which the negative logarithm of the IC50 (pIC50) in the assay on RAW264.7 [11] is 5.01. Regarding `COc1ccc([C@@H]2CCc3cc(OC)c(O)cc3O2)cc1O`, the negative-log IC50 (pIC50) with RAW264.7 [10] was 4.90. Take `CC(C)=CCc1c(O)ccc(C(=O)/C=C/c2cc3c(cc2O)OCO3)c1O`: the negative logarithm of the IC50 (pIC50) with BV-2 [12] was 5.23.

For the molecule `COc1c(/C=C/C(=O)c2ccccc2)c(O)cc2occc12`, the negative-log IC50 (pIC50) in the assay on BV-2 [12] is 4.96. With `COc1cc(O)c2c(=O)cc(-c3cc(OC)c(OC/C=C(\C)CCC=C(C)C)c(OC)c3)oc2c1`, in the assay on Neutrophil [8], the pIC50 was at least 4.90. Consider `C=C(C)c1oc2c(OC)c3oc(=O)c(-c4ccc(OC)cc4)c(O)c3c(OC)c2c1OC`, for which, in the assay with RAW264.7 [7], the negative-log IC50 (pIC50) was 6.05. For the molecule `COc1c(-c2ccc3c(c2)OCO3)oc2c(ccc3oc(C(C)(C)O)cc32)c1=O`, the pIC50 in the assay on BV-2 [13] was 4.95. On to `CC(C)=CCC/C(C)=C/Cc1cc(C2CC(=O)c3c(O)cc(O)cc3O2)cc(O)c1O` (configuration not stated), for which the pIC50 with RAW264.7 [6] was 4.93. Consider `C=C(C)c1cc2c(OC)c3c(O)c(-c4ccc(OC)cc4)c(=O)oc3c(OC)c2o1`, for which the pIC50 with RAW264.7 [7] is 6.05. For `COc1ccc(-c2cc3cc(O)c(O)cc3oc2=O)c(OC)c1OC`, in the assay with BV-2 [9], the pIC50 is 4.55.

Take `COc1c(-c2ccc(O)c(O)c2)oc2c(CC=C(C)C)c3c(c(O)c2c1=O)C=CC(C)(C)O3`: the negative logarithm of the IC50 (pIC50) in the assay with BV-2 [13] was 5.16. As to `CC1(C)CCC[C@@]2(C)Oc3c(ccc4oc(-c5ccc(O)c(O)c5)cc(=O)c34)C[C@@]12C`, the negative-log IC50 (pIC50) in the assay on Neutrophil [14] is 5.66; with Neutrophil [15], 5.72.
